Measurements published in BindingDB's records for doi:10.3109/14756366.2011.599323 (China Pharmaceutical University, 2012).
Where a SMILES comes first, the peptide text is derived from it.

Legend:
[1] = target: Matrix metalloproteinase-9 (Homo sapiens, UniProt P14780); assay: MMP-9 Activity Assay; conditions: pH 7.4; 37 °C
Protocol: Recombinant human MMP-9 was expressed in Sf9 insect cells and purified by gelatin-Sepharose affinity chromatography as described previously16,17. It was activated with 0.01 μM of the catalytic domain of MMP-3 (cd-MMP-3, Calbiochem) in assay buffer (100 mM Tris/HCl, pH 7.4, 100 mM NaCl, 10 mM CaCl2 and 0.01% Tween-20) at 92 ng/μl (1 μM) as a stock solution as described8. Hydrolysis of the substrate Mca-Pro-Leu-Gly-Leu-Dpa-Ala-Arg-NH2 (substrate I, R&D Systems Europe Ltd) was monitored by measuring the increase in fluorescence (excitation wavelength = 328 nm, emission wavelength = 392 nm) [Whittaker et al., Chem. Rev., 99:2735-2776]. All assays were performed at 37°C in 100 μl assay buffer. The reaction was started by adding 10 μl gelatinase B stock solution (0.92 ng/μl) to a 100 μl reaction system with a substrate concentration of 10 μM, after which the rate of substrate hydrolysis was monitored.

[2] = target: Disintegrin and metalloproteinase domain-containing protein 17 (Homo sapiens, UniProt P78536); assay: TACE Activity Assay; conditions: pH 9.0
Disintegrin and metalloproteinase domain-containing protein 17, sequence (P78536 whole entry, the tested form may be a part): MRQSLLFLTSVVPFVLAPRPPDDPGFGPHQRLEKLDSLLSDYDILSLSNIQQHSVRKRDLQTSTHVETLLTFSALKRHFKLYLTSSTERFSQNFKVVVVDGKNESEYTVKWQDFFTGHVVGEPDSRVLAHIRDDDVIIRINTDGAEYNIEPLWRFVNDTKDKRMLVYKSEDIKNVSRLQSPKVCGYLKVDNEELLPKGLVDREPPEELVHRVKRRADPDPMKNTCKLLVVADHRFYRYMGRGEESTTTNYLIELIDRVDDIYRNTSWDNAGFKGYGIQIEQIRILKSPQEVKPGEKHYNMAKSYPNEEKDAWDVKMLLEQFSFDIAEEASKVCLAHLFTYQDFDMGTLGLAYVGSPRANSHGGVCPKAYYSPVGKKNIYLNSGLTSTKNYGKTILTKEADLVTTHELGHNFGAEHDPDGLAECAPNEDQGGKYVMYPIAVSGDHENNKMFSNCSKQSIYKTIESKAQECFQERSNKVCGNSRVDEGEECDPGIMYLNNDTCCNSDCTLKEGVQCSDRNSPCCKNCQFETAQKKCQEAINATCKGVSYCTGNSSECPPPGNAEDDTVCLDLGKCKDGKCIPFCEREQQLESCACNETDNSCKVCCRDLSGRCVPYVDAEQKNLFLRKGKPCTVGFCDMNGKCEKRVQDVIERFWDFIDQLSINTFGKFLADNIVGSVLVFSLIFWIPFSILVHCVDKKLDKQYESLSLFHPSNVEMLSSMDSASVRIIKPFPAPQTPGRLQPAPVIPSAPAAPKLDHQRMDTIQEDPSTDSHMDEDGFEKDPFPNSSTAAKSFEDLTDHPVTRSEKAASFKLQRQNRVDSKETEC
Protocol: TACE was purchased as an active form enzyme (R&D Systems). Hydrolysis of the TACE-substrate Mca-Pro-Leu-Ala-Gln-Ala-Val-Dpa-Arg-Ser-Ser-Ser-Arg-NH (substrateIII, R&D Systems Europe Ltd) was monitored by measuring the increase in fluorescence (excitation wavelength = 320 nm, emission wavelength = 405 nm). TACEassays were performed at 37°C in 100 μl assay buffer. The reaction was started by adding 4 μl TACE stock solution (1 ng/μl) to a 100 μl reaction system with a final substrate concentration of 10 μM, after which the rate of substrate hydrolysis was monitored.

Neutrophil collagenase = Neutrophil collagenase (Homo sapiens, UniProt P22894); assay: MMP-8 Activity Assay; conditions: pH 7.4; 37 °C
Neutrophil collagenase, sequence (P22894 whole entry): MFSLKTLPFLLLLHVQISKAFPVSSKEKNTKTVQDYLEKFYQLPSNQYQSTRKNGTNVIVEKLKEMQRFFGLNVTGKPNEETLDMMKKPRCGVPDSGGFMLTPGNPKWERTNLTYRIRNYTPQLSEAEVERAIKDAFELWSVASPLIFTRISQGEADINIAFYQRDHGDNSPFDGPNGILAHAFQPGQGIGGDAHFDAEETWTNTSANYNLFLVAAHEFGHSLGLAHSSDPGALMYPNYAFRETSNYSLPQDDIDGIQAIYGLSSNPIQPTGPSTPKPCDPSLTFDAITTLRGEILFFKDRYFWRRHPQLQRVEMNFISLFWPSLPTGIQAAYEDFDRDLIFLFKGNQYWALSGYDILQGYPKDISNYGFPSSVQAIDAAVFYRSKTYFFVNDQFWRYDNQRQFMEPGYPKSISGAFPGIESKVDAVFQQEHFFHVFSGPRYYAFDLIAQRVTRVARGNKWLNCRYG
Protocol: Recombinant human MMP-8 was purchased as an active form enzyme (Sino Biological Inc.). The enzyme activity was detected with the same fluorogenic peptidesubstrate as that for MMP-9. All MMP-8 assays were performed at 37°C in 100 μl assay buffer with 20 μl recombinant human MMP-8 (2 ng/μl). The final substrateconcentration was 10 μM.

Stromelysin-1 = Stromelysin-1 (Homo sapiens, UniProt P08254); assay: MMP-3 Activity Assay; conditions: pH 7.4; 37 °C
Stromelysin-1, sequence (P08254 whole entry, the tested form may be a part): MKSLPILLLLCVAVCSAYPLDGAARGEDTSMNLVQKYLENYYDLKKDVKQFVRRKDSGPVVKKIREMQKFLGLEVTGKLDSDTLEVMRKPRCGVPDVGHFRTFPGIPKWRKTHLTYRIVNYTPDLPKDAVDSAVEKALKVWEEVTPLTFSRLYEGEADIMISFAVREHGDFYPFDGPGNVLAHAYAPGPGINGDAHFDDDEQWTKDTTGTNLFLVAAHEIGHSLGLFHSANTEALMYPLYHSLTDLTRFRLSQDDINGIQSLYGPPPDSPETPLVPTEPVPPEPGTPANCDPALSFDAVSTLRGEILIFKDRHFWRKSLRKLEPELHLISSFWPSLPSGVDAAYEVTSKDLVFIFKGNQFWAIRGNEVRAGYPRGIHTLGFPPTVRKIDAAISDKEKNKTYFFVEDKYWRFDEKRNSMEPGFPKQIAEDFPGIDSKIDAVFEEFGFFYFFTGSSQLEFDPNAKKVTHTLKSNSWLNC
Protocol: The activity of recombinant human MMP-3 (catalytic domain, Calbiochem) was detected with the substrate Mca-Arg-Pro-Lys-Pro-Val-Glu-Nval-Trp-Arg-Lys(Dnp)-NH2 (substrate II, R&D Systems Europe Ltd) (excitation wavelength = 320 nm, emission wavelength = 405 nm). These assays were performed at 37°C in 100 μl assay buffer. The reaction was started by adding 10 μl MMP-3 stock solution (1 ng/μl) to a 100 μl reaction system with a final substrate concentration of 10 μM, after which the rate of substrate hydrolysis was monitored.

Matrix metalloproteinase-9, sequence (P14780 whole entry, the tested form may be a part): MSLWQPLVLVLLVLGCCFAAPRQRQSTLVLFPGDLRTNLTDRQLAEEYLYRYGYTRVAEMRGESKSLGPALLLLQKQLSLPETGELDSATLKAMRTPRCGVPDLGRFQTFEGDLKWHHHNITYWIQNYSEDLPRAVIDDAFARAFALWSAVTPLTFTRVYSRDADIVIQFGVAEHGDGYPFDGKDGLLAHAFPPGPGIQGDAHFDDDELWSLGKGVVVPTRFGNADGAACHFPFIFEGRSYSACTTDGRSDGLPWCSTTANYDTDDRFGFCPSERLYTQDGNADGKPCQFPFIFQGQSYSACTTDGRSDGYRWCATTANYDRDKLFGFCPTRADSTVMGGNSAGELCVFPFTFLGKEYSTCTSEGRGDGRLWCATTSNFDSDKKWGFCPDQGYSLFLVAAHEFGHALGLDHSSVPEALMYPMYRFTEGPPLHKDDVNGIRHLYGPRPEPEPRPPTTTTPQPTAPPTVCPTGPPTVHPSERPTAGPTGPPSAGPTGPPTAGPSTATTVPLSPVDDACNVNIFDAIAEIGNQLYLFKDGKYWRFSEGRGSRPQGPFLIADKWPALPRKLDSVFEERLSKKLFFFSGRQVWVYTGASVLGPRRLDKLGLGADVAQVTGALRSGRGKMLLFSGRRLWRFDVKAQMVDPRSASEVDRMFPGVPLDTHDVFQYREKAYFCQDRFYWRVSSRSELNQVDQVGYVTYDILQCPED

SMILES | IC50 [1] | IC50 [2] | IC50 (Neutrophil collagenase) | IC50 (Stromelysin-1)
N=C(N)NCCC[C@H](N)C(=O)N[C@@H](CS)C(=O)N[C@H](Cc1ccc(-c2ccccc2)cc1)C(=O)N[C@H](CCCNC(=N)N)C(=O)O [Arg-Cys-(D-Bip)-(D-Arg)] (HELM PEPTIDE1{R.C.[O=C([C@@H](Cc1ccc(-c2ccccc2)cc1)N[*:1])[*:2]].[dR]}$$$$V2.0) | 750 nM | 20 µM | 2300 nM | 19.5 µM
N=C(N)NCCC[C@H](NC(=O)[C@H](Cc1ccc(-c2ccccc2)cc1)NC(=O)[C@@H](CS)NC(=O)[C@@H](N)CCCNC(=N)N)C(=O)O [Arg-(D-Cys)-Bip-Arg] (HELM PEPTIDE1{R.[dC].[O=C([C@H](Cc1ccc(-c2ccccc2)cc1)N[*:1])[*:2]].R}$$$$V2.0) | 900 nM | 2.5 µM | 900 nM | 22.5 µM
